According to BindingDB's records for doi:10.7270/Q2183BCW (D3R/Abbott, 2020):

Each compound was assayed against Cathepsin S (Homo sapiens, UniProt P25774) (assay: D3R2024).
Excerpt: D3R2024

Cathepsin S, sequence (P25774 whole entry): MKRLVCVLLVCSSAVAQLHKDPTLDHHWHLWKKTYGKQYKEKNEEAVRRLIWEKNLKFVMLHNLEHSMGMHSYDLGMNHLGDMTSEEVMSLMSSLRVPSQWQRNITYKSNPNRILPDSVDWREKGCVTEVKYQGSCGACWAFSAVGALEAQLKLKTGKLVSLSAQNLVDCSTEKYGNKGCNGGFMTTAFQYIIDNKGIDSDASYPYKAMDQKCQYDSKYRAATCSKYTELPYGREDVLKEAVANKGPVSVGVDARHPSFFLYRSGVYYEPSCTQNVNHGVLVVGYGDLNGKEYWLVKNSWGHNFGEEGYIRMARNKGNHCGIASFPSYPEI

Compound | IC50
COc1cc(Nc2nccc(N3CCC(NC(=O)Nc4cc(C)ccc4C)C3)n2)cc(OC)c1OC (configuration not stated) [D3RKN_101] | 10 µM
COC(=O)c1cccc(NC(=O)NC2CCN(c3ccnc(Nc4cc(OC)c(OC)c(OC)c4)n3)C2)c1 (configuration not stated) [D3RKN_99] | 0.34 µM
COc1ccc(Nc2nccc(N3CCC(NS(=O)(=O)c4ccc(NC(C)=O)cc4)C3)n2)cc1 (configuration not stated) [D3RKN_103] | 0.053 µM
COc1ccc(Nc2nccc(N3CCC(NC(=O)c4cccc(NC(C)=O)c4)C3)n2)cc1 (configuration not stated) [D3RKN_111] | 2.4 µM
COc1cc(Nc2nccc(N3CCC(NC(=O)c4cc5ccccc5s4)C3)n2)cc(OC)c1OC (configuration not stated) [D3RKN_104] | 0.71 µM
Cc1ccc(C)c(NC(=O)NC2CCN(c3ccnc(Nc4ccc(F)cc4)n3)C2)c1 (configuration not stated) [D3RKN_108] | 10 µM
COC(=O)C(NC(=O)NC1CCN(c2ccnc(Nc3ccc(F)cc3)n2)C1)c1ccccc1 (configuration not stated) [D3RKN_106] | 7.8 µM
COC(=O)C(Cc1ccccc1)NC(=O)NC1CCN(c2ccnc(Nc3ccc(F)cc3)n2)C1 (configuration not stated) [D3RKN_109] | 1.9 µM
COC(=O)c1cccc(NC(=O)NC2CCN(c3ccnc(Nc4ccc(OC)cc4)n3)C2)c1 (configuration not stated) [D3RKN_113] | 10 µM
O=C(NC1CCN(c2ccnc(Nc3ccc(F)cc3)n2)C1)c1cc2ccccc2s1 (configuration not stated) [D3RKN_110] | 10 µM
COc1ccc(Nc2nccc(N3CCC(NC(=O)c4cccc(C#N)c4)C3)n2)cc1 (configuration not stated) [D3RKN_112] | 4.7 µM
N#Cc1cccc(C(=O)NC2CCN(c3ccnc(Nc4ccc(F)cc4)n3)C2)c1 (configuration not stated) [D3RKN_100] | 5.8 µM
COc1ccc(Nc2nccc(N3CCC(NC(=O)Nc4cc(C)ccc4C)C3)n2)cc1 (configuration not stated) [D3RKN_115] | 10 µM
COc1cc(Nc2nccc(N3CCC(NC(=O)c4cccc(C#N)c4)C3)n2)cc(OC)c1OC (configuration not stated) [D3RKN_105] | 0.18 µM
COC(=O)c1cccc(NC(=O)NC2CCN(c3ccnc(Nc4ccc(F)cc4)n3)C2)c1 (configuration not stated) [TCMDC-133606] | 10 µM
COc1cc(Nc2nccc(N3CCC(NC(=O)c4cccc(NC(C)=O)c4)C3)n2)cc(OC)c1OC (configuration not stated) [D3RKN_114] | 0.054 µM
CCCc1ccc(S(=O)(=O)NC2CCN(c3ccnc(Nc4ccc(OC)cc4)n3)C2)cc1 (configuration not stated) [D3RKN_102] | 0.68 µM
